Laboratory results reported in ChEMBL document CHEMBL1156542, “Facile radiosynthesis of fluorine-18 labeled beta-blockers. Synthesis, radiolabeling, and ex vivo biodistribution of [18F]-(2S and 2R)-1-(1-fluoropropan-2-ylamino)-3-(m-tolyloxy)propan-2-ol” (J Med Chem, 2008).

What was measured:
[1] = system: Striatum; assay: Biodistribution in Sprague-Dawley rat striatum at 70 uCi, iv after 60 mins; format: ADME, organism-based; conditions: in vivo, 1 h
[2] = system: Heart; assay: Biodistribution in Sprague-Dawley rat heart at 70 uCi, iv after 60 mins; format: ADME, organism-based; conditions: in vivo, 1 h
[3] = system: Hippocampus; assay: Biodistribution in Sprague-Dawley rat hippocampus at 70 uCi, iv after 60 mins; format: ADME, organism-based; conditions: in vivo, 1 h
[4] = system: Brain; assay: Biodistribution in Sprague-Dawley rat rest of brain at 70 uCi, iv after 5 mins; format: ADME, organism-based; conditions: in vivo
[5] = system: Cortex; assay: Biodistribution in Sprague-Dawley rat rest of cortex at 70 uCi, iv after 60 mins; format: ADME, organism-based; conditions: in vivo, 1 h
[6] = system: Brain; assay: Biodistribution in Sprague-Dawley rat rest of brain at 70 uCi, iv after 15 mins; format: ADME, organism-based; conditions: in vivo, 0.25 h
[7] = system: Striatum; assay: Biodistribution in Sprague-Dawley rat striatum at 70 uCi, iv after 30 mins; format: ADME, organism-based; conditions: in vivo, 0.5 h
[8] = system: Cerebellum; assay: Biodistribution in Sprague-Dawley rat cerebellum at 70 uCi, iv after 15 mins; format: ADME, organism-based; conditions: in vivo, 0.25 h
[9] = system: Plasma; assay: Biodistribution in Sprague-Dawley rat plasma at 70 uCi, iv after 5 mins; format: ADME, organism-based; conditions: in vivo
[10] = system: Brain; assay: Biodistribution in Sprague-Dawley rat rest of brain at 70 uCi, iv after 30 mins; format: ADME, organism-based; conditions: in vivo, 0.5 h
[11] = system: Hippocampus; assay: Biodistribution in Sprague-Dawley rat hippocampus at 70 uCi, iv after 30 mins; format: ADME, organism-based; conditions: in vivo, 0.5 h
[12] = system: Plasma; assay: Biodistribution in Sprague-Dawley rat plasma at 70 uCi, iv after 30 mins; format: ADME, organism-based; conditions: in vivo, 0.5 h
[13] = system: Thalamus; assay: Biodistribution in Sprague-Dawley rat thalamus at 70 uCi, iv after 5 mins; format: ADME, organism-based; conditions: in vivo
[14] = system: Cortex; assay: Biodistribution in Sprague-Dawley rat rest of cortex at 70 uCi, iv after 30 mins; format: ADME, organism-based; conditions: in vivo, 0.5 h
[15] = system: Hypothalamus; assay: Biodistribution in Sprague-Dawley rat hypothalamus at 70 uCi, iv after 60 mins; format: ADME, organism-based; conditions: in vivo, 1 h
[16] = Lipophilicity, log P at pH 7.4; format: physicochemical; conditions: buffer
[17] = system: Hypothalamus; assay: Biodistribution in Sprague-Dawley rat hypothalamus at 70 uCi, iv after 30 mins; format: ADME, organism-based; conditions: in vivo, 0.5 h
[18] = system: Hypothalamus; assay: Biodistribution in Sprague-Dawley rat hypothalamus at 70 uCi, iv after 15 mins; format: ADME, organism-based; conditions: in vivo, 0.25 h
[19] = system: Striatum; assay: Biodistribution in Sprague-Dawley rat striatum at 70 uCi, iv after 5 mins; format: ADME, organism-based; conditions: in vivo
[20] = system: Plasma; assay: Biodistribution in Sprague-Dawley rat plasma at 70 uCi, iv after 15 mins; format: ADME, organism-based; conditions: in vivo, 0.25 h
[21] = Biodistribution in Sprague-Dawley rat frontal cortex at 70 uCi, iv after 30 mins; format: ADME, organism-based; conditions: in vivo, 0.5 h
[22] = Metabolic stability in Sprague-Dawley rat plasma at 70 uCi, iv after 60 mins; format: ADME, organism-based; conditions: read-out: Stability
[23] = Biodistribution in Sprague-Dawley rat frontal cortex at 70 uCi, iv after 60 mins; format: ADME, organism-based; conditions: in vivo, 1 h
[24] = system: Bone; assay: Biodistribution in Sprague-Dawley rat bone at 70 uCi, iv after 60 mins; format: ADME, organism-based, Bone element; conditions: in vivo, 1 h
[25] = system: Bone; assay: Biodistribution in Sprague-Dawley rat bone at 70 uCi, iv after 15 mins; format: ADME, organism-based, Bone element; conditions: in vivo, 0.25 h
[26] = system: Thalamus; assay: Biodistribution in Sprague-Dawley rat thalamus at 70 uCi, iv after 15 mins; format: ADME, organism-based; conditions: in vivo, 0.25 h
[27] = system: Cortex; assay: Biodistribution in Sprague-Dawley rat rest of cortex at 70 uCi, iv after 5 mins; format: ADME, organism-based; conditions: in vivo
[28] = Biodistribution in Sprague-Dawley rat frontal cortex at 70 uCi, iv after 5 mins; format: ADME, organism-based; conditions: in vivo
[29] = system: Heart; assay: Biodistribution in Sprague-Dawley rat heart at 70 uCi, iv after 30 mins; format: ADME, organism-based; conditions: in vivo, 0.5 h
[30] = Metabolic stability in Sprague-Dawley rat plasma at 70 uCi, iv after 30 mins; format: ADME, organism-based; conditions: read-out: Stability
[31] = system: Plasma; assay: Biodistribution in Sprague-Dawley rat plasma at 70 uCi, iv after 60 mins; format: ADME, organism-based; conditions: in vivo, 1 h
[32] = system: Striatum; assay: Biodistribution in Sprague-Dawley rat striatum at 70 uCi, iv after 15 mins; format: ADME, organism-based; conditions: in vivo, 0.25 h
[33] = system: Cerebellum; assay: Biodistribution in Sprague-Dawley rat cerebellum at 70 uCi, iv after 60 mins; format: ADME, organism-based; conditions: in vivo, 1 h
[34] = system: Heart; assay: Biodistribution in Sprague-Dawley rat heart at 70 uCi, iv after 5 mins; format: ADME, organism-based; conditions: in vivo
[35] = system: Hippocampus; assay: Biodistribution in Sprague-Dawley rat hippocampus at 70 uCi, iv after 15 mins; format: ADME, organism-based; conditions: in vivo, 0.25 h
[36] = system: Bone; assay: Biodistribution in Sprague-Dawley rat bone at 70 uCi, iv after 30 mins; format: ADME, organism-based, Bone element; conditions: in vivo, 0.5 h
[37] = system: Heart; assay: Biodistribution in Sprague-Dawley rat heart at 70 uCi, iv after 15 mins; format: ADME, organism-based; conditions: in vivo, 0.25 h
[38] = system: Brain; assay: Biodistribution in Sprague-Dawley rat rest of brain at 70 uCi, iv after 60 mins; format: ADME, organism-based; conditions: in vivo, 1 h
[39] = system: Cortex; assay: Biodistribution in Sprague-Dawley rat rest of cortex at 70 uCi, iv after 15 mins; format: ADME, organism-based; conditions: in vivo, 0.25 h
[40] = Biodistribution in Sprague-Dawley rat frontal cortex at 70 uCi, iv after 15 mins; format: ADME, organism-based; conditions: in vivo, 0.25 h
[41] = Metabolic stability in Sprague-Dawley rat plasma at 70 uCi, iv after 15 mins; format: ADME, organism-based; conditions: read-out: Stability
[42] = system: Thalamus; assay: Biodistribution in Sprague-Dawley rat thalamus at 70 uCi, iv after 60 mins; format: ADME, organism-based; conditions: in vivo, 1 h
[43] = system: Hypothalamus; assay: Biodistribution in Sprague-Dawley rat hypothalamus at 70 uCi, iv after 5 mins; format: ADME, organism-based; conditions: in vivo
[44] = Metabolic stability in Sprague-Dawley rat plasma at 70 uCi, iv after 5 mins; format: ADME, organism-based; conditions: read-out: Stability
[45] = system: Cerebellum; assay: Biodistribution in Sprague-Dawley rat cerebellum at 70 uCi, iv after 5 mins; format: ADME, organism-based; conditions: in vivo
[46] = system: Thalamus; assay: Biodistribution in Sprague-Dawley rat thalamus at 70 uCi, iv after 30 mins; format: ADME, organism-based; conditions: in vivo, 0.5 h
[47] = system: Bone; assay: Biodistribution in Sprague-Dawley rat bone at 70 uCi, iv after 5 mins; format: ADME, organism-based, Bone element; conditions: in vivo
[48] = system: Hippocampus; assay: Biodistribution in Sprague-Dawley rat hippocampus at 70 uCi, iv after 5 mins; format: ADME, organism-based; conditions: in vivo
[49] = system: Cerebellum; assay: Biodistribution in Sprague-Dawley rat cerebellum at 70 uCi, iv after 30 mins; format: ADME, organism-based; conditions: in vivo, 0.5 h
[50] = target: Beta-1 adrenergic receptor (Homo sapiens, UniProt P08588); assay: Binding affinity to beta-1 adrenergic receptor
[51] = target: Beta-2 adrenergic receptor (Homo sapiens, UniProt P07550); assay: Binding affinity to beta2 adrenergic receptor
Chain of Beta-2 adrenergic receptor (P07550 whole entry): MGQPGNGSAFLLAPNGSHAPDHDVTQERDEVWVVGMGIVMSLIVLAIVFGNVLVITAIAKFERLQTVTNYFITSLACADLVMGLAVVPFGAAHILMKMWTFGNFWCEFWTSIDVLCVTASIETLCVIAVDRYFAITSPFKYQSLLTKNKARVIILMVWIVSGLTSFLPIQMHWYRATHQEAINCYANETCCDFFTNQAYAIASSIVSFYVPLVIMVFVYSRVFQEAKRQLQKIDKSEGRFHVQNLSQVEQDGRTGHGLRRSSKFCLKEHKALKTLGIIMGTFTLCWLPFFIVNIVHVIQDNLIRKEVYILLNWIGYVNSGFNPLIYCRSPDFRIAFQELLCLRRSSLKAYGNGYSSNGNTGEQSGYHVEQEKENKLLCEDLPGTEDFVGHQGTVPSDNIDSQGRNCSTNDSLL

Chain of Beta-1 adrenergic receptor (P08588 whole entry): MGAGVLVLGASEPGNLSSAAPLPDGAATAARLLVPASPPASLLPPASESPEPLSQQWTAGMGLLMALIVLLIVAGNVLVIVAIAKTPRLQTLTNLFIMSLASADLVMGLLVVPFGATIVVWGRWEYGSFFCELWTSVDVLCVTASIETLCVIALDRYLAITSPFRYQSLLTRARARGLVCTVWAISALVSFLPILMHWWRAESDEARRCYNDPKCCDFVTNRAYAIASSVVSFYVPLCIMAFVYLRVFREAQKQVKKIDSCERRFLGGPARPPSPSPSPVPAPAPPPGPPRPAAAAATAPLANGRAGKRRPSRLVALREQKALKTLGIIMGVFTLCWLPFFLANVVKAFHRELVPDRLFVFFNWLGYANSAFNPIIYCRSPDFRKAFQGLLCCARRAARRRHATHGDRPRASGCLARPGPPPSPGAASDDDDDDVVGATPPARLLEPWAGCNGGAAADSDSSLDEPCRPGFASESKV

Cc1cccc(OC[C@@H](O)CNC(C)C[18F])c1 (stereo partly drawn)
Drug uptake [1]: 0.11 % ID/g | Drug uptake [2]: 0.06 % ID/g | Drug uptake [3]: 0.12 % ID/g | Drug uptake [4]: 0.84 % ID/g | Drug uptake [5]: 0.11 % ID/g | Drug uptake [6]: 0.5 % ID/g | Drug uptake [7]: 0.27 % ID/g | Drug uptake [8]: 0.46 % ID/g | Drug uptake [9]: 0.16 % ID/g | Drug uptake [10]: 0.24 % ID/g | Drug uptake [11]: 0.31 % ID/g | Drug uptake [12]: 0.13 % ID/g | Drug uptake [13]: 1.03 % ID/g | Drug uptake [14]: 0.29 % ID/g | Drug uptake [15]: 0.09 % ID/g | logD [16]: 1.68 | Drug uptake [17]: 0.22 % ID/g | Drug uptake [18]: 0.5 % ID/g | Drug uptake [19]: 0.97 % ID/g | Drug uptake [20]: 0.13 % ID/g | Drug uptake [21]: 0.3 % ID/g | remaining at 1 h [22]: 11.9% | Drug uptake [23]: 0.12 % ID/g | Drug uptake [24]: 0.18 % ID/g | Drug uptake [25]: 0.21 % ID/g | Drug uptake [26]: 0.65 % ID/g | Drug uptake [27]: 1.12 % ID/g | Drug uptake [28]: 1.21 % ID/g | Drug uptake [29]: 0.15 % ID/g | remaining at 0.5 h [30]: 16.4% | Drug uptake [31]: 0.08 % ID/g | Drug uptake [32]: 0.59 % ID/g | Drug uptake [33]: 0.08 % ID/g | Drug uptake [34]: 0.59 % ID/g | Drug uptake [35]: 0.63 % ID/g | Drug uptake [36]: 0.18 % ID/g | Drug uptake [37]: 0.26 % ID/g | Drug uptake [38]: 0.1 % ID/g | Drug uptake [39]: 0.62 % ID/g | Drug uptake [40]: 0.67 % ID/g | remaining at 0.25 h [41]: 28.6% | Drug uptake [42]: 0.11 % ID/g | Drug uptake [43]: 0.77 % ID/g | remaining at 5 min [44]: 59.2% | Drug uptake [45]: 0.75 % ID/g | Drug uptake [46]: 0.29 % ID/g | Drug uptake [47]: 0.18 % ID/g | Drug uptake [48]: 0.91 % ID/g | Drug uptake [49]: 0.21 % ID/g

CC(CF)NCC(O)COc1cccc2[nH]c3ccccc3c12 (stereo not drawn) [FLUOROCARAZOLOL]
logD [16]: 2.2

Cc1cccc(OC[11C@@H](O)CNC(C)C)c1
logD [16]: 0.2

Cc1cccc(OC[C@H](O)CNC(C)C[18F])c1 (stereo partly drawn)
Drug uptake [1]: 0.11 % ID/g | Drug uptake [2]: 0.07 % ID/g | Drug uptake [3]: 0.12 % ID/g | Drug uptake [4]: 0.88 % ID/g | Drug uptake [5]: 0.11 % ID/g | Drug uptake [6]: 0.47 % ID/g | Drug uptake [7]: 0.26 % ID/g | Drug uptake [8]: 0.43 % ID/g | Drug uptake [9]: 0.16 % ID/g | Drug uptake [10]: 0.25 % ID/g | Drug uptake [11]: 0.31 % ID/g | Drug uptake [12]: 0.13 % ID/g | Drug uptake [13]: 1.19 % ID/g | Drug uptake [14]: 0.29 % ID/g | Drug uptake [15]: 0.09 % ID/g | logD [16]: 1.79 | Drug uptake [17]: 0.23 % ID/g | Drug uptake [18]: 0.46 % ID/g | Drug uptake [19]: 1.04 % ID/g | Drug uptake [20]: 0.13 % ID/g | Drug uptake [21]: 0.29 % ID/g | remaining at 1 h [22]: 7.7% | Drug uptake [23]: 0.12 % ID/g | Drug uptake [24]: 0.25 % ID/g | Drug uptake [25]: 0.22 % ID/g | Drug uptake [26]: 0.62 % ID/g | Drug uptake [27]: 1.12 % ID/g | Drug uptake [28]: 1.3 % ID/g | Drug uptake [29]: 0.15 % ID/g | remaining at 0.5 h [30]: 12.6% | Drug uptake [31]: 0.07 % ID/g | Drug uptake [32]: 0.54 % ID/g | Drug uptake [33]: 0.08 % ID/g | Drug uptake [34]: 0.51 % ID/g | Drug uptake [35]: 0.6 % ID/g | Drug uptake [36]: 0.3 % ID/g | Drug uptake [37]: 0.26 % ID/g | Drug uptake [38]: 0.1 % ID/g | Drug uptake [39]: 0.55 % ID/g | Drug uptake [40]: 0.59 % ID/g | remaining at 0.25 h [41]: 25.5% | Drug uptake [42]: 0.12 % ID/g | Drug uptake [43]: 0.92 % ID/g | remaining at 5 min [44]: 61.9% | Drug uptake [45]: 0.82 % ID/g | Drug uptake [46]: 0.3 % ID/g | Drug uptake [47]: 0.3 % ID/g | Drug uptake [48]: 1.01 % ID/g | Drug uptake [49]: 0.23 % ID/g

Cc1cccc(OC[C@@H](O)CNC(C)C)c1 [(S)-TOLIPROLOL]
Kd [50]: 380 pM | Kd [51]: 1200 pM

CC(C)NCC(O)COc1cccc2[nH]c3ccccc3c12 (stereo not drawn) [CARAZOLOL]
logD [16]: 1.36
